From publication PMC6934184, “Selective DNA-PKcs inhibition extends the therapeutic index of localized radiotherapy and chemotherapy” (The Journal of Clinical Investigation, 2019) come the findings set out here.

The structures appear in SMILES notation.

This test deals with T1, GRK4 (Homo sapiens, UniProt P32298).
T1 construct: purchased Thermo Fisher Scientific (Life Technologies) SelectScreen
Put plainly: SelectScreen Z'LYTE. It counts as biochemical. In short, it runs like this:
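Percent values come from Thermo SelectScreen profiling of NU5455, combining activity and binding assays. CSF1R was run in Z'LYTE format at Km app ATP, and CAMK1 in Adapta format with ATP listed at 10.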

T1 sequence (P32298 whole entry): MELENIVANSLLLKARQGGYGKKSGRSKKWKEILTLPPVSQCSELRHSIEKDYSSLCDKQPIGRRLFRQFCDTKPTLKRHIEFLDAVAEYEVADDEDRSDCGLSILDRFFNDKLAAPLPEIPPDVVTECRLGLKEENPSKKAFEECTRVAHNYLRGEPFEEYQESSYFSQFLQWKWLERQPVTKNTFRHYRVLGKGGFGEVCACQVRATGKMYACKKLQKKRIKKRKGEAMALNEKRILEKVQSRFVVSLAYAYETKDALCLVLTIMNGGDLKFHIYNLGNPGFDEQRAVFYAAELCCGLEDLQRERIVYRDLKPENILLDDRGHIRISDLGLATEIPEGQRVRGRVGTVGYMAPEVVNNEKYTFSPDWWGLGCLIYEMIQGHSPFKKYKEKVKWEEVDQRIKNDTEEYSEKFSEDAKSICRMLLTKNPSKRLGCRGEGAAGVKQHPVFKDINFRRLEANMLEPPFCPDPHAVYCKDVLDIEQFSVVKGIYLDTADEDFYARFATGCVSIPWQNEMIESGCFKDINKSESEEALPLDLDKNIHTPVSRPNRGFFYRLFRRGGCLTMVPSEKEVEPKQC

The term inhibition denotes the change of the read-out against control, counted positive when it falls. As for `CN(C(=O)CN1CCOCC1)c1ccc2sc3c(-c4cccc5c(=O)cc(N6CC7CCC(C6)O7)oc45)cccc3c2c1` [NU5455], 1 µM produced 3.5% inhibition.
